Source: PubChem BioAssay AID330 (DTP/NCI, 2004)
Values joined by “and” are separate entries in the source; they are usually repeats but may differ in a detail not shown here. Identical values can stand only once. Inconclusive results and toxic doses are left out. The calls were made as follows: active = survival T/C of 150% or more; inactive = T/C below 125% in these data.

Test system: P388 leukemia ip, CD2F1 mice, survival T/C
Assay: NCI In Vivo Anticancer Drug Screen. Data for tumor model P388 Leukemia (intraperitoneal) in CD2F1 (CDF1) mice
Details: endpoint: median survival time, higher = longer survival
How it was run: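 Mice carrying the transplanted tumor received test compound or vehicle. Survival was recorded in each group, and the value is the treated-group measurement divided by that of the vehicle-treated control group.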

[1] = dose: 100.0 mg/kg/injection, schedule: Q01DX009 (ip), vehicle: saline with Tween-80
[2] = dose: 200.0 mg/kg/injection, schedule: Q01DX009 (ip), vehicle: saline with Tween-80
[3] = dose: 100.0 mg/kg/injection, schedule: Q04DX002 (ip), vehicle: saline
[4] = dose: 200.0 mg/kg/injection, schedule: Q04DX002 (ip), vehicle: saline
[5] = dose: 400.0 mg/kg/injection, schedule: Q04DX002 (ip), vehicle: saline

Measured: T/C

O=C([O-])[O-].O=[N+]([O-])O.[Co+3].[NH2-].[NH2-].[NH2-].[NH2-]
inactive: [1] 122 % of control | [2] 113 % of control | dose: 400.0 mg/kg/injection, schedule: Q01DX009 (ip), vehicle: saline with Tween-80 100 % of control

[Cl][Pt+2][Cl].[NH-]C1C(O)OC(CO)C(O)C1O.[NH-]C1C(O)OC(CO)C(O)C1O (stereo not given)
inactive: dose: 25.0 mg/kg/injection, schedule: Q04DX002 (ip), vehicle: saline 105 % of control | dose: 50.0 mg/kg/injection, schedule: Q04DX002 (ip), vehicle: saline 105 % of control | [3] 105 % of control | [4] 112 % of control | [5] 106 % of control

CCNc1nc(Cl)nc(NCC)n1
inactive: dose: 100.0 mg/kg/injection, schedule: Q01DX009 (ip), vehicle: saline 98 % of control | dose: 200.0 mg/kg/injection, schedule: Q01DX009 (ip), vehicle: saline 91 % of control | dose: 400.0 mg/kg/injection, schedule: Q01DX009 (ip), vehicle: saline 94 % of control

CC1(C)OC(c2ccccc2)=Nc2ccccc21
inactive: [3] 104 % of control | [4] 103 % of control | [5] 99 % of control

CCO/C=C1/N=C(c2ccc(Cl)c([N+](=O)[O-])c2)OC1=O
inactive: dose: 60.0 mg/kg/injection, schedule: Q01DX005 (ip), vehicle: saline with Tween-80 108 % of control | dose: 120.0 mg/kg/injection, schedule: Q01DX005 (ip), vehicle: saline with Tween-80 106 % of control | dose: 240.0 mg/kg/injection, schedule: Q01DX005 (ip), vehicle: saline with Tween-80 107 % of control

CCC(CC)COC(=O)c1ccccc1C(=O)OCC(CC)CC
inactive: [1] 110 % of control and 96 % of control | [2] 101 % of control and 117 % of control

CC(C)CC(=O)CC1(C)CCC(c2ccoc2)O1 (stereo not given)
inactive: dose: 25.0 mg/kg/injection, schedule: Q01DX009 (ip), vehicle: saline with Tween-80 102 % of control | dose: 50.0 mg/kg/injection, schedule: Q01DX009 (ip), vehicle: saline with Tween-80 101 % of control | [1] 107 % of control

CN1C(=O)C23CCCN2C(=O)C1(C)SC(=N)S3 (stereo not given)
inactive: dose: 25.0 mg/kg/injection, schedule: Q04DX003 (ip), vehicle: suspension in saline 101 % of control | dose: 50.0 mg/kg/injection, schedule: Q04DX003 (ip), vehicle: suspension in saline 95 % of control | dose: 100.0 mg/kg/injection, schedule: Q04DX003 (ip), vehicle: suspension in saline 95 % of control

CCOP(=O)(O)C1CCCC(C)[N-]1.CCOP(=O)(O)C1CCCC(C)[N-]1.[Ni+2] (stereo not given)
inactive: dose: 12.5 mg/kg/injection, schedule: Q04DX003 (ip), vehicle: Klucel (hydroxypropylcellulose) (HPC) 99 % of control | dose: 25.0 mg/kg/injection, schedule: Q04DX003 (ip), vehicle: Klucel (hydroxypropylcellulose) (HPC) 107 % of control | dose: 50.0 mg/kg/injection, schedule: Q04DX003 (ip), vehicle: Klucel (hydroxypropylcellulose) (HPC) 107 % of control

CC(C)C1OC(c2ccc(Cl)cc2)OCC1(C)C (stereo not given)
inactive: dose: 100.0 mg/kg/injection, schedule: Q04DX003 (ip), vehicle: saline with Tween-80 114 % of control | dose: 200.0 mg/kg/injection, schedule: Q04DX003 (ip), vehicle: saline with Tween-80 110 % of control | dose: 400.0 mg/kg/injection, schedule: Q04DX003 (ip), vehicle: saline with Tween-80 97 % of control

O=c1cccc(C2CC(CO)C3CCCCN3C2)[nH]1 (stereo not given)
inactive: dose: 1.1 mg/kg/injection, schedule: Q01DX009 (ip), vehicle: distilled water + Tween-80 + alcohol 86 % of control | dose: 1.5 mg/kg/injection, schedule: Q01DX009 (ip), vehicle: acid diluted with CMC 96 % of control | dose: 2.2 mg/kg/injection, schedule: Q01DX009 (ip), vehicle: acid diluted with CMC 99 % of control | dose: 2.2 mg/kg/injection, schedule: Q01DX009 (ip), vehicle: distilled water + Tween-80 + alcohol 93 % of control | dose: 4.5 mg/kg/injection, schedule: Q01DX009 (ip), vehicle: acid diluted with CMC 96 % of control | dose: 4.5 mg/kg/injection, schedule: Q01DX009 (ip), vehicle: distilled water + Tween-80 + alcohol 93 % of control | dose: 9.0 mg/kg/injection, schedule: Q01DX009 (ip), vehicle: acid diluted with CMC 99 % of control and 93 % of control | dose: 9.0 mg/kg/injection, schedule: Q01DX009 (ip), vehicle: distilled water + Tween-80 + alcohol 103 % of control | dose: 18.0 mg/kg/injection, schedule: Q01DX009 (ip), vehicle: acid diluted with CMC 94 % of control
